According to publication PMC10475565 (2023):

Legend:
[1] = system: d(TG4T) (DNA, G4) TGGGGT; test: fluorescent intercalator displacement; details: 10 mM sodium cacodylate, 0.5 mM EDTA, pH 7.0, 21-23 °C, thiazole orange displaced, 1 μM neomycin, 1 μM quadruplex
[2] = system: d(TG4T) (DNA, G4) TGGGGT; test: ITC; details: 60 mM KCl, 10 mM sodium cacodylate, 0.5 mM EDTA, pH 7.0, 20 °C
[3] = system: d(UG4T) (DNA, G4, 2'-deoxyuridine at 1) UGGGGT; test: ITC; details: 60 mM KCl; 10 mM sodium cacodylate, 0.5 mM EDTA, pH 7.0, 20 °C
[4] = system: CEB1 (DNA, G4) AGGGGGGAGGGAGGGTGG; test: ITC; details: 60 mM KCl; 10 mM sodium cacodylate, 0.5 mM EDTA, pH 7.0, 20 °C
[5] = system: d(T4G4T4) (DNA, G4) TTTTGGGGTTTT; test: ITC; details: 90 mM KCl; 10 mM sodium cacodylate, 0.5 mM EDTA, pH 7.0, 20 °C; one binding event, isotherm not fitted
[6] = system: d(T3G4T3) (DNA, G4) TTTGGGGTTT; test: ITC; details: 60 mM KCl; 10 mM sodium cacodylate, 0.5 mM EDTA, pH 7.0, 20 °C; one binding event, isotherm not fitted
[7] = system: d(T2G4T2) (DNA, G4) TTGGGGTT; test: ITC; details: 60 mM KCl; 10 mM sodium cacodylate, 0.5 mM EDTA, pH 7.0, 20 °C

Compound	% fluorescence change ([1]; 30 mM NaCl)	% fluorescence change ([1]; 60 mM KCl)	Ka1 ([2]; site 1 of 2)	Ka [3]	association constant [4] [M⁻¹]	binding [5]	binding [6]	Ka [7] [M⁻¹]	binding ([2]; isotherm could not be fitted, 300 μM titrant)
NC[C@@H]1O[C@H](O[C@H]2[C@@H](O)[C@H](O[C@@H]3[C@@H](O)[C@H](N)C[C@H](N)[C@H]3O[C@H]3O[C@H](CN)[C@@H](O)[C@H](O)[C@H]3N)O[C@@H]2CO)[C@H](N)[C@@H](O)[C@@H]1O	~ 25%	~ 15%	2.10 ± 0.80 × 10^8 M^-1	1.23 ± 0.05 × 10^6 M^-1	723000	yes	yes	59000	
NC[C@@H]1O[C@H](O[C@H]2[C@@H](O)[C@H](O[C@@H]3[C@@H](O)[C@H](N)C[C@H](N)[C@H]3O[C@H]3O[C@H](CO)[C@@H](O)[C@H](O)[C@H]3N)O[C@@H]2CO)[C@H](N)[C@@H](O)[C@@H]1O									weak
